Assay results: PMC9699003, “Arene Variation of Highly Cytotoxic Tridentate Naphthoquinone-Based Ruthenium(II) Complexes and In-Depth In Vitro Studies” (Pharmaceutics, 2022)

Tests used:
SW480 cells [1] = assay: Colony formation assay; type: cell-based, human; conditions: SW480, 11 days, relative to untreated control
Protocol: For the colony formation assay, SW480 cells were seeded at a density of 350 cells/2 mL into each well of 6-well plates (CytoOne, tissue culture treated) and left to adhere for 24 h. To determine the long-term effects of the test compounds, the cells were exposed to them for 11 days at 37 °C and 5% CO2. After incubation, the wells were gently washed with 1 mL cold PBS and the colonies were fixed with 1 mL cold (4 °C) 100% methanol (Thermo Fisher, Waltham, MA, USA) for 30 min at 4 °C and washed with 1 mL PBS again. The fixed colonies were stained with 1 mL of 0.5% w/v crystal violet (Sigma-Aldrich) in methanol for 2 min and the plates were washed under tap water. After drying the plates, images of the wells were captured, and colonies were counted with the colony counting function of Fusion Fx7 software (Vilber Lourmat, Collégien, France). Results were normalized to untreated controls. Data are averaged from at least three independent experiments.

CH1/PA-1 cells = assay: Cell cycle distribution (PI staining, flow cytometry); type: cell-based, human; conditions: CH1/PA-1, 24 h
Protocol: (§1) For the flow-cytometric determination of cell cycle distribution, CH1/PA-1 (8 × 10^4 cells/well) and SW480 (1.2 × 10^5 cells/well) cells were seeded into 12-well plates (CytoOne, tissue culture treated) in 1 mL supplemented MEM. In the first 24 h, the cells were allowed to settle and resume exponential growth. […] Gemcitabine (Sigma-Aldrich, 0.01 and 0.05 µM) and etoposide (Sigma-Aldrich, 0.25, 0.5 and 1 µM) were used as positive controls. After removal of the treatment medium, cells were washed with 1 mL PBS and trypsinized. Cells were collected in Eppendorf tubes and centrifuged (300 g, 3 min), and the supernatant was discarded. In the following step, cells were washed with 1 mL PBS and resuspended in 500 µL PI/HFS buffer (0.1% v/v Triton X-100, 0.1% w/v sodium citrate, in PBS) containing 25 µg/mL propidium iodide (PI, 1.0 mg/mL, Sigma-Aldrich). The staining was carried out overnight at 4 °C in the dark, and 200 µL of the cell suspension was loaded into 96-well round bottom plates (Falcon). Samples were measured with a Millipore Guava easyCyte 8HT flow cytometer with GuavaSoft™ software in the InCyte-modus, and 10,000 events/sample were detected. Data were analyzed with FlowJo software v 10.8.1 (Tree Star, Ashland, OR, USA) using Watson algorithm. Percentages of cells in the three cell cycle phases (G1/G0, S and G2/M) were calculated by integrating the resulting histograms of fluorescence signals (Figures S29 and S30). Experiments were repeated at least three times. For statistical evaluation, an unpaired t-test with Welch’s correction was performed by using GraphPad PRISM software.

SW480 cells [2] = assay: as above; type: cell-based, human; conditions: SW480, 24 h
Protocol: as §1

pUC19 plasmid = assay: DNA interaction assay (dsDNA plasmid, agarose gel electrophoresis); type: biochemical; conditions: 50 µM; for open circular (oc) form of pUC19 (single-strand breaks): 37 °C, after 6 h of incubation, control after 6 h 3.6 ± 0.7%
Protocol: The incubation was performed at 37 °C for different time intervals (15 min to 6 h) with continuous shaking. Additionally, 4 µL aliquots of a 6× DNA loading dye (Thermo Fisher) were added to the 20 µL reaction solution, and the DNA samples were separated in a 1% agarose gel in 1 × Tris-Borate-EDTA (TBE) buffer. Electrophoresis was initiated at 60 V for 5 min and continued at 120 V for 90 min in 1 × TBE buffer. For visualization of the DNA modification degree, the agarose gel was stained with ethidium bromide (EtBr) in 1 × TBE (0.75 µg/mL) for 20 min.

NQO1 (SW480 cells) = target: T1, NQO1 (SW480 cells) (Homo sapiens, UniProt P15559); assay: NQO1 activity assay in cell extracts after treatment; type: cell-based; conditions: SW480, 24 h treatment
T1 construct: impact on NQO1 activity in SW480 (left panel) and CH1/PA-1 (right panel) cell extracts after treatment; endogenous in cells; host or cells: SW480 colon carcinoma cells (ATCC)
Protocol: To determine NQO1 activity, SW480 and CH1/PA-1 cells were seeded into 6-well plates in densities of 2 × 10^5 cells/well in 2 mL supplemented MEM. […] The test substances were dissolved in DMSO/medium. To exclude that assay validity was compromised by the use of DMSO, cells treated with DMSO alone (at concentrations corresponding to those in substance solutions) were measured in parallel. After 24 h drug exposure, the medium was aspirated, and the cells were gently washed twice with PBS. The further steps were performed following the manual instructions of the NQO1 activity assay kit (ab184867, abcam, Cambridge, UK). Protease inhibitor phenylmethylsulfonyl fluoride (PMSF, Merck, Darmstadt, Germany) and phosphatase inhibitor PhosSTOP^TM (Roche, Basel, Switzerland) were applied. For determining the protein concentration, the Micro BCA^TM protein assay (prod # 23235, Thermo Scientific) kit was used. For NQO1 activity determination, 100 µg/mL of total protein was loaded. The development of yellow color was monitored for 5 min in 20-sec intervals with a microplate reader (BioTek ELx808) at 450 nm. The measured data were evaluated according to the instructions of the NQO1 activity assay kit: “NQO1 activity was calculated by subtracting the OD value with Inhibitor from the one without Inhibitor. The activity is expressed as the change in absorbance per minute per amount of sample loaded into the well” [30]. Data are expressed as rates of increase of mean absorbance ± SDs from three independent experiments.

[3] = test system: CH1/PA-1 ovarian teratocarcinoma cells; conditions: CH1/PA-1, MTT, 96 h exposure; cited from earlier work

T1 sequence (P15559 whole entry): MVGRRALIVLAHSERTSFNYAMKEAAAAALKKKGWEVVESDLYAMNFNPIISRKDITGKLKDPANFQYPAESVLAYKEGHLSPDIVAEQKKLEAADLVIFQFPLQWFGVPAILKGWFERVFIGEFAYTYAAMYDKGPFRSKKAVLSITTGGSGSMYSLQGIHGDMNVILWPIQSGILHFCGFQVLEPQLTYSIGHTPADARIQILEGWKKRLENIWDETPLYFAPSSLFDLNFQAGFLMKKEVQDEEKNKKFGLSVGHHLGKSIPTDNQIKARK

## CC1=C([O-])C([O-])(n2cccn2)c2ccccc2C1=O.[Ru+2].c1ccccc1 (racemic) [Compound 2]
SW480 cells [1]; 5 µM
  Number of colonies: 48 ± 9%
SW480 cells [1]; 10 µM
  Number of colonies: 20 ± 4%
SW480 cells [1]; 20 µM
  Number of colonies: 3.5 ± 1.5%
CH1/PA-1 cells; 100 µM
  Cells in G1/G0 phase: 29.9 ± 5.7%
  Cells in G2/M phase: 37.0 ± 6.1%
  Cells in S phase: 39.9 ± 1.4%
CH1/PA-1 cells; 150 µM
  Cells in G1/G0 phase: 30.8 ± 7.1%
  Cells in G2/M phase: 38.3 ± 5.3%
  Cells in S phase: 36.5 ± 3.3%
CH1/PA-1 cells; 200 µM
  Cells in G1/G0 phase: 29.7 ± 8.5%
  Cells in G2/M phase: 33.0 ± 3.0%
  Cells in S phase: 39.1 ± 0.8%
SW480 cells [2]; 5 µM
  Cells in G1/G0 phase: 36.0 ± 6.7%
  Cells in G2/M phase: 32.0 ± 2.6%
  Cells in S phase: 34.2 ± 3.8%
SW480 cells [2]; 10 µM
  Cells in G1/G0 phase: 22.6 ± 5.7%
  Cells in G2/M phase: 40.9 ± 4.2%
  Cells in S phase: 38.8 ± 7.9%
SW480 cells [2]; 20 µM
  Cells in G1/G0 phase: 22.3 ± 6.3%
  Cells in G2/M phase: 27.9 ± 9.0%
  Cells in S phase: 52.1 ± 3.3%
pUC19 plasmid
  open circular (oc) form of pUC19 (single-strand breaks): 11.8 ± 0.9%

## CC1=C(O)C(=O)c2ccccc2C1=O [L, 2-Hydroxy-3-methyl-1,4-naphthoquinone]
SW480 cells [1]; 50 µM
  Number of colonies: 62 ± 25%
SW480 cells [1]; 150 µM
  Number of colonies: 0 ± 0%
CH1/PA-1 cells; 100 µM
  Cells in G1/G0 phase: 37.0 ± 0.3%
  Cells in G2/M phase: 22.9 ± 2.8%
  Cells in S phase: 41.4 ± 2.4%
CH1/PA-1 cells; 150 µM
  Cells in G1/G0 phase: 40.8 ±1.7%
  Cells in G2/M phase: 19.3 ± 1.9%
  Cells in S phase: 42.1 ± 2.7%
CH1/PA-1 cells; 200 µM
  Cells in G1/G0 phase: 47.2 ± 1.7%
  Cells in G2/M phase: 16.8 ± 8.9%
  Cells in S phase: 37.6 ± 3.5%
SW480 cells [2]; 50 µM
  Cells in G1/G0 phase: 47.4 ± 2.0%
  Cells in G2/M phase: 14.5 ± 0.5%
  Cells in S phase: 38.8 ± 1.7%
SW480 cells [2]; 100 µM
  Cells in G1/G0 phase: 51.5 ± 5.0%
  Cells in G2/M phase: 12.1 ± 0.4%
  Cells in S phase: 35.9 ± 3.4%
SW480 cells [2]; 150 µM
  Cells in G1/G0 phase: 52.0 ± 2.9%
  Cells in G2/M phase: 11.3 ± 0.5%
  Cells in S phase: 36.3 ± 2.2%
SW480 cells [2]; tested concentrations
  Cell cycle perturbation (in words): did not show any cell cycle perturbation
NQO1 (SW480 cells); 10 µM
  Effect on NQO1 activity (in words): moderately inhibited
[3]
  IC50: 129 ± 29 µM

## CC1=C([O-])C([O-])(n2cccn2)c2ccccc2C1=O.Cc1ccccc1.[Ru+2] (racemic) [Compound 3]
SW480 cells [1]; 1.25 µM
  Number of colonies: 53 ± 8%
SW480 cells [1]; 2.5 µM
  Number of colonies: 23 ± 8%
SW480 cells [1]; 5 µM
  Number of colonies: 4.3 ± 3.7%
CH1/PA-1 cells; 100 µM
  Cells in G1/G0 phase: 25.8 ± 4.6%
  Cells in G2/M phase: 40.1 ± 2.7%
  Cells in S phase: 38.6 ± 1.5%
CH1/PA-1 cells; 150 µM
  Cells in G1/G0 phase: 23.1 ±7.0%
  Cells in G2/M phase: 36.9 ± 1.5%
  Cells in S phase: 40.8 ± 0.6%
CH1/PA-1 cells; 200 µM
  Cells in G1/G0 phase: 24.9 ± 5.8%
  Cells in G2/M phase: 40.3 ± 2.6%
  Cells in S phase: 36.4 ± 1.2%
SW480 cells [2]; 1.25 µM
  Cells in G1/G0 phase: 28.4 ± 7.8%
  Cells in G2/M phase: 35.1 ± 1.8%
  Cells in S phase: 38.2 ± 7.1%
SW480 cells [2]; 2.5 µM
  Cells in G1/G0 phase: 17.6 ± 4.5%
  Cells in G2/M phase: 43.1 ± 7.6%
  Cells in S phase: 43.3 ± 7.4%
SW480 cells [2]; 5 µM
  Cells in G1/G0 phase: 20.4 ± 5.9%
  Cells in G2/M phase: 28.2 ± 5.6%
  Cells in S phase: 54.1 ± 3.2%
pUC19 plasmid
  open circular (oc) form of pUC19 (single-strand breaks): 11.7 ± 1.6%

## CC1=C([O-])C([O-])(n2cccn2)c2ccccc2C1=O.Cc1c(C)c(C)c(C)c(C)c1C.[Ru+2] (stereo not drawn) [Compound 6]
SW480 cells [1]; 0.16 µM
  Number of colonies: 28 ± 12%
SW480 cells [1]; 0.31 µM
  Number of colonies: 9.2 ± 3.2%
SW480 cells [1]; 0.63 µM
  Number of colonies: 1.2 ± 1.1%
CH1/PA-1 cells; 25 µM
  Cells in G1/G0 phase: 25.1 ± 2.5%
  Cells in G2/M phase: 44.2 ± 7.1%
  Cells in S phase: 35.0 ± 0.9%
CH1/PA-1 cells; 50 µM
  Cells in G1/G0 phase: 22.8 ± 4.7%
  Cells in G2/M phase: 40.8 ± 2.5%
  Cells in S phase: 38.6 ± 4.2%
CH1/PA-1 cells; 75 µM
  Cells in G1/G0 phase: 25.6 ± 3.5%
  Cells in G2/M phase: 38.4 ± 3.7%
  Cells in S phase: 39.4 ± 2.5%
SW480 cells [2]; 0.16 µM
  Cells in G1/G0 phase: 23.2 ± 4.1%
  Cells in G2/M phase: 35.7 ± 0.7%
  Cells in S phase: 43.7 ± 4.8%
SW480 cells [2]; 0.31 µM
  Cells in G1/G0 phase: 15.0 ± 3.8%
  Cells in G2/M phase: 32.6 ± 4.7%
  Cells in S phase: 53.7 ± 4.9%
SW480 cells [2]; 0.63 µM
  Cells in G1/G0 phase: 24.2 ± 2.0%
  Cells in G2/M phase: 25.6 ± 4.5%
  Cells in S phase: 53.5 ± 2.6%
pUC19 plasmid; up to 6 h
  Influence on pUC19 (in words): only a minor influence on pUC19

## CC1=C([O-])C([O-])(n2cccn2)c2ccccc2C1=O.Cc1ccc(C(C)C)cc1.[Ru+2] (racemic) [Compound 1]
SW480 cells [1]; 0.039 µM
  Number of colonies: 18 ± 5%
SW480 cells [1]; 0.078 µM
  Number of colonies: 3.1 ± 0.8%
SW480 cells [1]; 0.16 µM
  Number of colonies: 0.26 ± 0.43%
CH1/PA-1 cells; 50 µM
  Cells in G1/G0 phase: 18.7 ± 1.7%
  Cells in G2/M phase: 48.2 ± 5.5%
  Cells in S phase: 39.2 ± 8.7%
CH1/PA-1 cells; 100 µM
  Cells in G1/G0 phase: 19.8 ± 2.1%
  Cells in G2/M phase: 40.9 ± 4.0%
  Cells in S phase: 45.8 ± 3.8%
CH1/PA-1 cells; 150 µM
  Cells in G1/G0 phase: 20.0 ± 1.3%
  Cells in G2/M phase: 31.0 ± 3.2%
  Cells in S phase: 52.9 ± 1.9%
CH1/PA-1 cells; concentration-dependent
  Increase of S phase fraction relative to untreated control: up to 11%
SW480 cells [2]; 0.039 µM
  Cells in G1/G0 phase: 23.8 ± 6.1%
  Cells in G2/M phase: 37.2 ± 2.3%
  Cells in S phase: 40.0 ± 2.1%
SW480 cells [2]; 0.078 µM
  Cells in G1/G0 phase: 15.4 ± 1.2%
  Cells in G2/M phase: 34.5 ± 2.1%
  Cells in S phase: 53.4 ± 1.1%
SW480 cells [2]; 0.16 µM
  Cells in G1/G0 phase: 25.0 ± 8.2%
  Cells in G2/M phase: 22.5 ± 4.3%
  Cells in S phase: 56.2 ± 8.4%
NQO1 (SW480 cells); 0.1 µM and 1 µM, compared to untreated control
  Effect on NQO1 activity (in words): negligible effects
NQO1 (SW480 cells); 10 µM
  Effect on NQO1 activity (in words): lowered NQO1 activity tremendously
[3]
  IC50: > 50 µM
